These results are taken from patent publication US12502369B2, “Methods of cancer treatment” (K-GEN, INC., priority 2015, dated 2025).

Molecules are shown by their SMILES. Like-named read-outs stand apart in the source and are kept apart here.

For assay [1], the system named is PKCδ, PKCμ, c-Raf in MH22A. The assay is described as follows: Activation of PKC isoforms in hepatoma cell line MH22A, Western blot. Format: cell-based, mouse. (Immunoblotting shows a protein as a band on a membrane.)
The test system of the next assay is HL60. The assay is described as follows: Proliferation assay (CellTiter Glo), HL60. Type of assay: cell-based. Particulars: for Top inhibition %: 96 hours. As to the method:
(§1) Briefly, cells at a density of 1,000-10,000 cells/well were seeded in 96-well plates and incubated at 37′C for 24 hours. A series of 9 different concentrations of compound stocks (500×) were created by 3-fold serial dilution in DMSO. These compounds were further diluted in culture media and then added to cells so that the final DMSO concentration was 0.2%. After 96 hours of incubation, 50 μL of CellTiter Glo reagent (Promega) was added to each well and luminescence was measured after 10 minutes using EnVision (PerkinElmer). […] The dose range for most compounds was 4.6 nM-30 μM. The dose ranges for some compounds were adjusted downward to 0.46 nM-3 μM or 0.08 nM-0.5 μM or 0.03 nM-0.2 μM. Luminescence from cells treated with […] alone was set as Max and % of inhibition was calculated as follows: Inhibition %=(Max-Sample value)/Max*100. Data was analyzed using XL-fit software (ID Business Solutions Ltd.) and EC50, relative EC50, and % of top inhibition were calculated. The results are shown in Tables 3-6 for pancreatic cancer, lung cancer, colon/gastric cancer, and leukemia cell lines.

The next assay has as its system A549. The assay is described as follows: Proliferation assay (CellTiter Glo), A549. Type of assay: cell-based. The settings on record: for Top inhibition %: 96 hours. As to the method: as §1
A further assay deals with AGS. The assay is described as follows: Proliferation assay (CellTiter Glo), AGS. The settings on record: for Top inhibition %: 96 hours. Format: cell-based. As to the method:
as §1

Another assay deals with CaMKii (Thr286). The assay is described as follows: CaMKii phosphorylation in pancreatic cancer cell lines, Western blot. Particulars: Panc1 or Panc2.13 cells; 24 or 48 hours; K-101A 0.5 and 2.5 μM, K-102 0.1 and 0.5 μM. Format: cell-based. As to the method: Cells were lysed in a protein lysis buffer (1 ml of 10×TNE [20 mL 1M Tris pH7.5; 30 mL 5M NaCl; 2 mL 0.5M EDTA; 48 mL d2H2O], 1 ml of 10% NP40, 7.7 mL of dH2O, 100 μL of 10× Protease inhibitors, 100 μL of 10× Phosphatase inhibitors, and 10 μl DTT). Protein quantification, SDS-PAGE, and Western blot procedures were performed as described in Example 2. […] The effect was more apparent at 48 hours. Phospho-CaMKii (T286) is a marker for activation of CaMKii kinase in the Wnt/Ca^2′ signaling pathway when K-Ras and CaM are dissociated (Wang et al., 2015, Cell. 163(5):1237-51).

A further assay has as its system H441. The assay is described as follows: Proliferation assay (CellTiter Glo), H441. Type of assay: cell-based. Particulars: for Top inhibition %: 96 hours. As to the method:
as §1

The subject of a further assay is BxPC-3. The assay is described as follows: Proliferation assay (CellTiter Glo), BxPC-3. Type of assay: cell-based. The settings on record: BxPC-3 (WT K-ras). As to the method:
as §1, with “calculated.” for “calculated. The results are shown in Tables 3-6 for pancreatic cancer, lung cancer, colon/gastric cancer, and leukemia cell lines.”
Other cancer cell lines having wild-type K-ras status and K-ras mutation at G12 were also screened using the PKC activator compounds. […] K-104 was tested in a range of 0.03 nM-0.2 μM. […] The dose ranges were adjusted downward to 0.46 nM-3 μM for K-102 and 0.08 nM-0.5 μM for K-103 for some cell lines.
On the technique in general: Cellular ATP, detected with luciferase, serves as a proxy for viable cell number.

The test system of assay [2] is leukemia inhibitory factor (LIF). The assay is described as follows: Western blot of LIF in A549 cells. Type of assay: cell-based. The settings on record: for protein levels of the leukemia inhibitory factor (LIF): Western blot, concentrations of Table 8, 48 hours. As to the method: Cancer cells (2-8 million cells) were seeded in 10 cm dishes and grown overnight. For A549 lung cancer cell line, about 3 million cells were seeded. Cells were then treated with different drugs at indicated concentrations (see Table 8) for a period of time up to 48 hours. Cells were lysed in 0.3-0.5 mL of RIPA buffer (Sigma) supplemented with protease inhibitors (Roche) and phosphatase inhibitors (Sigma). Lysates were assayed for protein concentration using BCA kit (Pierce). Normalized amount of lysates (20-30 μg protein/lane) were run on 4-12% NuPage gel (Life Technologies) and the proteins were transferred to the PVDF or nitrocellulose membrane using iBlot® Transfer Stack (Life Technologies). The membranes were probed with primary antibodies shown in Table 8 at 4° C. overnight after blocking with 1×TBST containing 5% non-fat milk. Antibodies from other vendors could also be used in Western blot analysis. After washing 5 times with 1×TBS containing 0.1% Tween20, the membranes were probed with 2nd antibodies Anti-mouse IgG Dylight 800 conjugate or Anti-rabbit IgG DyLight 680 conjugate (1:10000; Cell signaling or similar IR 2nd antibodies from different vendors) at room temperature for one hour. After washing 5 times, the membranes were scanned using Odyssey® Imaging System (Licor Biosciences).

Assay [3] concerns PKC isoforms in Panc2.13 cells. The assay is described as follows: Time course of activation of PKC isoforms in Panc2.13. Format: cell-based. The settings on record: extended periods (16 h and 24 h). As to the method:
Cells of pancreatic cancer cell line Panc2.13 were seeded as described above, and the cell confluence was between 40-80% the next day. […] Phosphorylation at multiple PKC isoforms, such as Ser744/748 or Ser916 for PKCμ, phosphorylation at Thr638/641 for PKCα/β, phosphorylation at Ser660 for PKCβII (pan-PKC), phosphorylation at Ser643/676 for PKCδ/θ, and phosphorylation at Thr505 for PKCδ, were detected.

The subject of another assay is Panc2.13. The assay is described as follows: Proliferation assay (CellTiter Glo), Panc2.13. Format: cell-based. Particulars: for Top inhibition %: 96 hours. As to the method: as §1
The test system of a further assay is lymphoma cell lines. The assay is described as follows: Proliferation assay, 9 lymphoma cell lines. Type of assay: cell-based. Particulars: for IC50: among the sensitive lymphoma cell lines, read-out: IC50 ranges. As to the method: PKC activators were tested in 9 lymphoma cell lines (Table 10). Proliferation assays were performed as described in Example 1.

[4] abbreviates: Homo sapiens, absolute EC50, 96 hours, read-out: Ab EC50.
[5] abbreviates: Homo sapiens, relative EC50, 96 hours, read-out: Re EC50.
The mark [6] stands for this setting: absolute EC50, 96 hours, read-out: Ab EC50.
[7] abbreviates: relative EC50, 96 hours, read-out: Re EC50.
Where [8] appears, read: 9 lymphoma cell lines of Table 10.

The term EC50 denotes the concentration needed to bring the measured effect to its halfway point. The IC50 is the concentration at which inhibition is half-maximal. As for `CC(=O)O[C@@]12C[C@@H](C)[C@]3(O)C4C=C(C)C(=O)[C@@]4(O)CC(CO)=C[C@H]3[C@@H]1C2(C)C` (some centres unmarked) [Compound K-101A, Prostratin], the “phosphorylation of PKCδ at Thr505, PKCμ at Ser744/748, PKCμ at Ser916, c-Raf at Ser338” value in assay [1] is given as “did not induce further phosphorylation”. Besides, the Top inhibition % in the assay with HL60 is 61.3%; with A549, 76.0%; in the assay with AGS, 21.7%; in the assay with H441, 42.1%; in the assay with BxPC-3 it was 40.11%; with Panc2.13 it was 43.4%. In addition, the EC50 was 470 nM in the assay on HL60 (Homo sapiens, HL-60, absolute EC50, 96 hours, read-out: Ab EC50); 400 nM in the assay on HL60 (Homo sapiens, HL-60, relative EC50, 96 hours, read-out: Re EC50); 490 nM in the assay on A549 (setting [4]); 270 nM in the assay with A549 (setting [5]); > 30 µM in the assay on AGS (setting [4]); 0.49 µM in the assay with AGS (setting [5]). Also, the EC50 in the assay with H441 (Homo sapiens, NCI-H441, absolute EC50, 96 hours, read-out: Ab EC50) is > 30000 nM; with H441 (Homo sapiens, NCI-H441, relative EC50, 96 hours, read-out: Re EC50), 320 nM; in the assay on Panc2.13 (setting [6]), > 30000 nM; with Panc2.13 (setting [7]), 17 nM. Also, the “phosphorylation on CaMKii at Thr286” value in the assay on CaMKii (Thr286) is “induced phosphorylation”. Also, the LIF protein level entry in assay [2] (0.5 uM of K-101A) is recorded as “lowered”. For the same compound, in [2], the “protein levels of the leukemia inhibitory factor (LIF)” value was “dose-dependent reduction”. Besides, in assay [3] (K101A 1 μM versus K102, K103), the “reducing the phosphorylation at Ser643/676 of PKCδ/θ” value was “more potent”. Moreover, the “sensitivity of lymphoma cell lines” value with lymphoma cell lines (setting [8]) is recorded as “Seven lymphoma cell lines were very sensitive”; in the assay with lymphoma cell lines (Daudi and Raji), “not sensitive”. Also, in the assay with lymphoma cell lines, the IC50 was in the range of 77 to 284 nM.
With `CC(=O)OCC1=C[C@H]2[C@@H]3C(C)(C)[C@]3(OC(C)=O)C[C@@H](C)[C@]2(O)C2C=C(C)C(=O)[C@@]2(O)C1` (some centres unmarked) [Compound K-101E], the Top inhibition % came to 63.4% with HL60; 78.7% in the assay on A549; 25.9% with AGS; 49.1% with H441; 38.87% in the assay on BxPC-3; 49.8% in the assay with Panc2.13. Moreover, the EC50 is 3050 nM in the assay on HL60 (setting [6]); 1920 nM in the assay on HL60 (setting [7]); 2640 nM with A549 (setting [6]); 1560 nM with A549 (setting [7]); > 30 µM in the assay on AGS (setting [6]); 4.38 µM in the assay on AGS (setting [7]). The EC50 was > 30000 nM in the assay with H441 (setting [6]), 2610 nM in the assay with H441 (setting [7]), > 30000 nM in the assay with Panc2.13 (setting [6]) and 44 nM in the assay with Panc2.13 (setting [7]). The “protein levels of the leukemia inhibitory factor (LIF)” value in [2] is reported as “did not affect”.
For the compound `C/C=C(/C)C(=O)O[C@H]1C(C)=C[C@]23C(=O)[C@@H](C=C(CO)[C@@H](O)[C@]12O)[C@H]1[C@@H](C[C@H]3C)C1(C)C` [Compound K-102, Ingenol-3-angelate, reference compound], the “phosphorylation of PKCδ at Thr505, PKCμ at Ser744/748, PKCμ at Ser916, c-Raf at Ser338” value in [1] (MH22A, basal levels high, K101A 1 μM, K102 0.1 μM) was “did not induce further phosphorylation”. In addition, in the assay with CaMKii (Thr286), the “phosphorylation on CaMKii at Thr286” value was “induced phosphorylation”. Also, the “reducing the phosphorylation at βII Ser660 of PKC (pan), to a lesser extent Thr638/641 of PKCα/β” value in assay [3] (K102 0.1 μM, K103 0.01 μM versus K101A) is on record as “more potent”. Besides, the “sensitivity of lymphoma cell lines” value was “Seven lymphoma cell lines were very sensitive” in the assay on lymphoma cell lines (setting [8]); “not sensitive” with lymphoma cell lines (Daudi and Raji). Further, the IC50 with lymphoma cell lines lay in the range of 0.8 to 5 nM.
